Here are results for 3 molecules from patent publication US20210212937A1, “GLUCONO DELTA-LACTONE FOR TREATMENT OF VAGINAL FUNGAL INFECTIONS” (Gedea Biotech AB, priority 2016, published 2021).

The test system of one test is Candida. Put plainly: Biofilm assay of hydroxylated carboxylic acids. Format: cell-based. An excerpt:
Given the importance of formation of biofilm in vulvovaginal Candida infections, a biofilm assay was deemed appropriate to evaluate the effect of hydroxylated carboxylic acid in targeting vulvovaginal Candida infections. […] As biofilm formation is dependent on both pH and the occurrence of alternative carbohydrate sources, it was not surprising to learn that lactic acid provides some effect on the formation of biofilm. Further, also some other hydroxylated C2-C5 carboxylic acids provided similar effects. Their effect is deemed to be related to their acidifying effect, as the stronger acid provided somewhat stronger effects.
Whereas the effect of other hydroxylated carboxylic acids seemingly only is due to their acidity (lowering the pH hampers the formation of biofilm), the effect of polyhydroxylated C6 carboxylic acids, e.g. gluconic acid, on formation of biofilm is pronounced already at pH<7. Thus, it seems that the effect of polyhydroxylated C6 carboxylic acid, e.g. gluconic acid, on formation of biofilm not merely is related to its acidity, but the compound itself, or more precisely the related δ-lactone thereof, also provides an effect.

Test [1] has as its system C. glabrata. Put plainly: Viability of mature biofilm, XTT staining. The test is classed as cell-based, Candida glabrata. To be noted: 24 h of incubation. Here is the method:
(§1) XXT is a colorimetric assay for quantification of cellular viability, and cytotoxicity. The assay is based on the cleavage of the tetrazolium salt XTT, a conversion that only occurs in viable cells. […] Then the cells were washed 2 times with PBS, after which the XTT reaction mixture was added. After 30 min the optical density measured at 485 nm.
(In general: Formazan colour is commonly taken as a measure of viable cells.)

Test [2] deals with C. glabrata. Put plainly: Cell survival of mature biofilm, serial dilution plating on YPD. The test is classed as cell-based, Candida glabrata. Here is the method: (§2) The plated cells were incubated for 24 h at 37° C. and visually analyzed. The cells from the mature biofilm treated with water were used as a control. […] At the concentrations of 0.2 and 0.5 g/ml after 5 h of incubation the cell viability was decreased by about 100 times for both C. albicans and C. glabrata.

Test [3] deals with Candida albicans. Put plainly: Biofilm formation of Candida albicans at different pH (crystal violet). The test is classed as cell-based. As for the experimental part: The biofilm was measured after 24 h and the staining was performed with crystal violet.
(§3) Yeast strains were grown at 37° C. in complete medium YPD (0.5% (weight/volume) yeast extract, 1% (weight/volume) peptone, 2% (weight/volume) glucose) or minimal medium consisting of YNB (yeast nitrogen base without amino acids and ammonium sulphate, FORMEDIUM™, CYN0505) supplemented with 0.5% (weight/volume) ammonium sulphate, 0.2% (weight/volume) glucose and 100 mM L-proline. If needed 2% (weight/volume) agar was used to solidify media. The liquid minimal medium (YNB (yeast nitrogen base without amino acids and ammonium sulphate, FORMEDIUM™, CYN0505) supplemented with 0.5% ammonium sulphate, 0.2% (weight/volume) glucose and 100 mM L-proline) was used for biofilm assay (biofilm medium).
Biofilm was measured in liquid culture as described [K. Scherz et al., G3 (Bethesda), 2014, 4, 1671-1680. I. Serrano-Fujarte et al. Biomed Res Int. 2015; 2015:783639] with some modifications. […] At defined time points crystal violet (HT901-8FOZ; Sigma Aldrich) was added to the media at the final concentration 0.05% In addition, total biomass was measured. […] Total biomass and crystal violet biofilm staining measurements were performed at OD560 with FLUOstar OPTIMA plate reader, BMG LABTECH. […]

In test [4] the test system is C. albicans. Put plainly: Microfluidics study of biofilm development (cell morphology). The test is classed as cell-based, Candida albicans. As to conditions: 5 h, 1 h hydrolysate of GDA pellet diluted 50 times. As for the experimental part:
To monitor the C. albicans cell morphology we studied the biofilm development also using microscopy and microfluidics. After the yeast cells were inoculated, hyphae started to form within first hour of incubation in the biofilm medium (YNB supplemented with 100 mM proline and 0.2% glucose, pH7.0). […] A sample was taken after 1 h and diluted 50 times with biofilm medium and added to C. albicans.

A further test has as its system Candida sp. Put plainly: Viability on medium with calcofluor white versus osmotic stabilizer (cell wall damage). Format: cell-based. As to conditions: compared to medium with 0.5M sucrose and to untreated cells.
The test system of test [5] is C. albicans. Put plainly: Viability of mature biofilm, XTT staining. Format: cell-based, Candida albicans. Here is the method:
as §1

The test system of test [6] is C. albicans. Put plainly: Cell survival of mature biofilm, serial dilution plating on YPD. The test is classed as cell-based, Candida albicans. To be noted: 0.5 g/ml, 5 h, 37° C. As for the experimental part: as §2
A further test relates to Candida glabrata. Put plainly: Biofilm formation in a model of in vivo conditions using GDA pellet. To be noted: C. glabrata; GDA released from pellet (2.5 g) in pH 3.71 buffer, samples 1-24 h, diluted 50 times. The test is classed as cell-based. Here is the method: as §3
(§4) Biofilm was measured in liquid culture as described [K. Scherz et al., G3 (Bethesda), 2014, 4, 1671-1680. I. Serrano-Fujarte et al. Biomed Res Int. 2015; 2015:783639] with some modifications. Prior the biofilm assay, yeast cultures were grown in liquid YPD medium for 24 hours until stationary phase cells were then pelleted by centrifugation (1699×g), washed with sterile water and the cells were further inoculated into test biofilm medium (YNB (yeast nitrogen base without amino acids and ammonium sulphate) supplemented with 0.5% ammonium sulphate, 0.2% glucose and 100 mM L-proline pH7.0) at final concentration of 0.2 OD600/ml and incubated in 96-well flat-bottom polystyrene microtiter plates (Sigma Aldrich, Corning® Costar® culture plates, CLS3596-50EA) for 72 hours at 37° C. thermostat. At defined time points crystal violet (HT901-8FOZ; Sigma Aldrich) was added to the media at the final concentration 0.05% In addition, total biomass was measured. […] Total biomass and crystal violet biofilm staining measurements were performed at OD560 with FLUOstar OPTIMA plate reader, BMG LABTECH. […]
(§5) Samples (4 mL) were taken at fixed time points (1, 2, 3, 4, 5, 6 and 24 h) and new buffer solution (4 mL) was added. The samples were diluted 50 times with biofilm medium (vide supra) and the amount of biofilm formation was measured after 24 h as described above. […]

Test [7] concerns Candida albicans. The test is described as above. The test is classed as cell-based. To be noted: C. albicans. As for the experimental part:
as §3, §4, §5

As for `CC(O)C(=O)O` (stereo not shown) [lactic acid], the “Activity in biofilm assay” value with Candida (targeting vulvovaginal Candida infections) was “moderately active”.

In the case of `O=C(O)[C@H](O)[C@@H](O)[C@H](O)[C@H](O)CO` [gluconic acid], in the test with Candida, the “pH at which effect on formation of biofilm is already pronounced” value is on record as less than 7. The “Decrease of formation of biofilm” value with Candida (compared to glyceric acid, xylonic acid and citric acid) is “superior effects”.

Turning to `O=C1O[C@H](CO)[C@@H](O)[C@H](O)[C@H]1O` [GDA, glucono δ-lactone], the results for the “Viability of mature biofilm (XTT, OD 485 nm)” value with C. glabrata [1], in the test with C. albicans [5] (24 h of incubation) and with C. albicans [5] (48 h) were “strong decrease in viability”, “less pronounced” and “clearly seen”, respectively. For the same molecule, the “Decrease of cell viability” value with C. glabrata [2] (C. glabrata mature biofilm, 0.5 g/ml, 5 h, 37° C.) is “about 100 times”; with C. albicans [6], “about 100 times”. The “Sensitivity of mature biofilm compared with C. albicans” value in the test on C. glabrata [2] (C. glabrata, plating after incubation with GDA) is “more sensitive”. The “pH up to which strong effect on biofilm formation is shown” value in the test on Candida albicans [3] (C. albicans, 24 h) is listed as “at least 6”. In addition, the “Effect on biofilm formation of C. albicans” value in the test on Candida albicans [3] (minimal media pH 2.6-6.6, 24 h) is given as “strong effects”. In addition, in the test on C. albicans [4], the Cell morphology result is listed as “most treated cells were planctonic”. The “Viability on medium with calcofluor white” value in the test with Candida sp. is recorded as “lower viability”. The “Amount of biofilm formation” value is reported as “less pronounced” in the test with Candida glabrata and “significantly reduces” in the test on Candida albicans [7] (GDA released from pellet (2.5 g) in pH 3.71 buffer, samples 1-24 h, diluted 50 times). Also, in the test with Candida albicans [7] (pellet 2.5 g in pH 3.71 buffer, 37° C.), the “Duration of preventive effect of pellet” value was not below 24 h.
